# Values of other authors as cited in patent US20140243422A1, “METHODS OF TREATING BEHAVIORAL AND PSYCHIATRIC DISORDERS” (ELAN PHARMACEUTICALS, INC., priority 2011, published 2014).
# Test system: amyloid β-peptide
# Settings: given orally, transgenic mouse model of AD; cited from earlier work
structure (smiles),measurement,value
O[C@H]1[C@H](O)[C@@H](O)[C@H](O)[C@@H](O)[C@@H]1O [scyllo-inositol],aggregation of amyloid β-peptide in the brain,inhibits aggregation of amyloid β-peptide in the brain
